Tests used:
[1] = test system: HIV-1 mutant strain RV2 (K101E+Y181C+G190A); assay: Anti-HIV activity, luciferase single-round infection of TZM-bl cells, RV-2; format: cell-based; conditions: Human immunodeficiency virus 1, TZM-bl, read-out: EC50 RV-2
Experimental: (§1) The target compound WB3 was evaluated its activity against HIV-1 NL4-3, HIV-1 mutant strains GH9 (K101P+K103N+V108I), RV1 (K101E+Y181V), RV2 (K101E+Y181C+G190A), RV3 (K101E+Y181C+E138K), RV4 (L100I+M230I) and RV5 (M230L). Rilpivirine (RPV) was selected as control drug.
(§2) Inhibition of HIV-1 infection was measured as reduction in luciferase gene expression after a single round of virus infection of TZM-bl cells. Briefly, 200 TCID50 of virus (NL4-3, GH9, RV-1, RV-2, RV-3, RV-4 and RV-5) was used to infect TZM-bl cells in the presence of various concentrations of compounds. Two days after infection, the culture medium was removed from each well and 100 μL of Bright Glo reagent (Promega, Luis Obispo, Calif.) was added to the cells for measurement of luminescence with a Victor 2 luminometer. […] The cytotoxicity of compounds was determined using a colorimetric 2,3-bis-(2-methoxy-4-nitro-5-sulfophenyl)-2H-tetrazolium-5-carboxanilide (XTT) assay. An amount of 100 μL of the test compounds at graded concentrations was added to equal volumes of cells (5×10^5/mL) in wells of a 96-well plate. Incubation at 37° C. for four days, then 50 μL of XTT solution (1 mg/mL) containing 0.02 μM phenazine methosulfate (PMS) was added. After four hours, the absorbance at 450 nm was measured with an ELISA reader. The CC50 values were calculated using the CalsuSyn computer program as described above.

[2] = test system: HIV-1 mutant strain RV1 (K101E+Y181V); assay: Anti-HIV activity, luciferase single-round infection of TZM-bl cells, RV-1; format: cell-based; conditions: Human immunodeficiency virus 1, TZM-bl, read-out: EC50 RV-1
Experimental: as §1, §2

[3] = test system: HIV-1 mutant strain RV4 (L100I+M230I); assay: Anti-HIV activity, luciferase single-round infection of TZM-bl cells, RV-4; format: cell-based; conditions: Human immunodeficiency virus 1, TZM-bl, read-out: EC50 RV-4
Experimental: as §1, §2

[4] = test system: HIV-1 mutant strain RV5 (M230L); assay: Anti-HIV activity, luciferase single-round infection of TZM-bl cells, RV-5; format: cell-based; conditions: Human immunodeficiency virus 1, TZM-bl, read-out: EC50 RV-5
Experimental: as §1, §2

[5] = test system: HIV-1 mutant strain RV3 (K101E+Y181C+E138K); assay: Anti-HIV activity, luciferase single-round infection of TZM-bl cells, RV-3; format: cell-based; conditions: Human immunodeficiency virus 1, TZM-bl, read-out: EC50 RV-3
Experimental: as §1, §2

[6] = test system: HIV-1 NL4-3 (wild-type HIV-1 viral strain); assay: Anti-HIV activity, luciferase single-round infection of TZM-bl cells, NL4-3; format: cell-based; conditions: Human immunodeficiency virus 1, NL43, wild-type HIV-1 NL4-3
Experimental: as §1, §2

Cytotoxicity, XTT assay = format: cell-based; conditions: human, mock-infected TZM-bl cells
Experimental: as §2

[7] = test system: HIV-1 mutant strain GH9 (K101P+K103N+V108I); assay: Anti-HIV activity, luciferase single-round infection of TZM-bl cells, GH9; format: cell-based; conditions: for EC50: Human immunodeficiency virus 1, TZM-bl, read-out: EC50 GH9
Experimental: as §1, §2

[8] = Pharmacokinetics by single iv and po administration in Wistar rats; format: in vivo
Experimental: Then, WB3 was evaluated its pharmacokinetics profiles by single iv and po administration in Wistar rats. […] These favorable PK results are sufficient to support the ability of WB3 to become an orally bioavailable NNRTIs drug candidate.
All the samples were then centrifuged at 8000 rpm for 8 min to separate plasma, which was stored at −78° C. until analysis. […] Standard curves for WB3 in blood were generated by the addition of various concentrations of WB3 together with internal standard to blank plasma.
The plasma pharmacokinetic data were analyzed by using the […] of DAS 2.0 pharmacokinetic program. The main pharmacokinetic parameters (Cmax, AUC, Tmax, T1/2, and CL) were calculated.

Compound | EC50 [1] | EC50 [2] | EC50 [3] | EC50 [4] | EC50 [5] | EC50 [6] | CC50 at 4 days (Cytotoxicity, XTT assay) | EC50 [7] | CL ([8]; iv 2 mg/kg (Table 2)) | Cmax ([8]; male, rat, plasma, iv 2 mg/kg) | fold potency versus rilpivirine against GH9 ([7]; EC50 ratio to rilpivirine, GH9 strain)
Cc1cc(/C=C/C#N)cc(C)c1Nc1ccnc(Nc2ccc(C#N)cc2)n1 [RPV, Rilpivirine, reference compound] | 24.3 ± 5.73 nM | 45.6 ± 12.6 nM | 9.82 ± 2.35 nM | 10.4 ± 3.27 nM | 88.1 ± 37.4 nM | 0.96 ± 0.3 nM | > 341 nM | > 273 nM | – | – | –
Cc1cc(/C=C/C#N)cc(C)c1Oc1nc(NC2CCN(Cc3ccc(S(C)(=O)=O)cc3)CC2)nc2ncccc12 [WB3] | 29 ± 10.9 nM | 18.3 ± 5.8 nM | 9.32 ± 2.46 nM | 6.15 ± 2.29 nM | > 106 nM | 1.16 nM | > 44 nM | 1.37 nM | 20.6 ± 4.50 mL | 1490 ng/mL | up to 200 fold

From patent US20230061859A1, “PYRIDO[2,3-D]PYRIMIDINE HIV-1 REVERSE TRANSCRIPTASE INHIBITOR WB3, PREPARATION METHOD AND APPLICATION THEREOF” (SHAN DONG UNIVERSITY, priority 2020, published 2023)
